The target in one experiment is T1, elastase.
T1 construct: gene CELA1
In words: absorbance at […] nm, nitroanilide release. The conditions noted are these: N-(methoxysuccinyl)-Ala-Ala-Pro-Val-4-nitroanilide substrate; 0.2 M Tris-HCl; 30 min; positive control. Type of experiment: biochemical.

For the next experiment, the target named is T2, collagenase.
T2 construct: gene colG
As to the kind of experiment: modified ninhydrin assay, absorbance at […] nm. Type of experiment: biochemical. The note with it: collagen substrate; 5 h at 37°C; calcium chloride; positive control.

In paper PMC11465873, “Functional Properties and Components of Koenigia alpina Extract” (Skin Research and Technology, 2024) one finds IC50 data, which are given here for one compound.

Converted amounts (≈) assume the structure as drawn.

A word on the IC50: it is the concentration at which inhibition is half-maximal.

Regarding `O=C(O[C@@H]1Cc2c(O)cc(O)cc2O[C@@H]1c1cc(O)c(O)c(O)c1)c1cc(O)c(O)c(O)c1` [Epigallocatechin gallate], the IC50 against elastase turned out to be 2620 µg/mL (≈ 5720 µM); on collagenase, 40 µg/mL (≈ 87.3 µM).
